Measured values from patent publication US20250367229A1, “Treatment of Immune-Related Disorders, Kidney Disorders, Liver Disorders, Hemolytic Disorders, and Oxidative Stress-Associated Disorders Using NRH, NARH and Reduced Derivatives Thereof” (MitoPower LLC, priority 2021, published 2025).

What was measured:
[1] = Stability in human serum in vitro (absorbance over time); format: in vitro ADME; details: 100 μM, 37° C.
Protocol: Three blood samples were collected from healthy human donors with the same blood group in serum separator vacutainer gel tubes. The samples were centrifuged at 1,800 g to separate serum. The serum samples obtained were pooled together into a separate tube.
NR, NRH and NRH-triacetate (NRHTA) were initially dissolved in DMSO and then diluted with normal saline to obtain a 1 mM stock solution of each compound. 100 μL of stock solution was added to 900 μL of pooled serum to assess the stability of the test compound in human serum. 200 μL of saline with 1,800 μL of pooled serum was used to prepare a solution for blanking and as a reference measurement. The stock solutions were diluted in the pooled serum and normal saline to prepare 100 μM solutions of the test compounds.
In previous experiments, spectral scans between 190 nm and 1100 nm were performed to determine absorbance maxima for NR, NRH and NRHTA, which have maximal absorbance at 265 nm, 340 nm and 331 nm, respectively, in solution.
The stability of a test compound in human serum was determined by a change in the concentration of the compound as measured by a change in absorbance at the maximal absorbance wavelength for the compound as a function of time. The test compounds at 100 μM were incubated in human serum at 37° C. Absorbance measurements were made at 0 min (T0), 5 min, 30 min, 120 min, 240 min, 360 min and 1440 min (24 hr). The relative change in absorbance compared to T0 was plotted and used for statistical analysis. The analysis was performed in triplicates.

[2] = tested on: peripheral blood mononuclear cells (PBMCs); assay: Extracellular acidification rate (ECAR, a measure of glycolysis) in activated PBMCs, Seahorse XF; format: cell-based, human; details: 250 μM, 4 hr, PBMCs stimulated with anti-CD3 and anti-CD28 antibodies
Protocol: PBMCs (1.5×10^6) obtained from a healthy human adult donor were unstimulated or stimulated with anti-CD3 and anti-CD28 antibodies (1 μg/mL each) to induce T-cell activation, in the absence or presence of 250 μM NRH for 4 hr. The cells were then washed and plated on poly-D-lysine-coated Seahorse XF microplates at a density of 3×10^5 cells per well (5 replicates). The plates were centrifuged briefly and incubated at 37° C. in a non-CO2 incubator for 30 min to settle the cells in the bottom of the plate. Extracellular acidification rate (ECAR, a measure of glycolysis) and oxygen consumption rate (OCR, a measure of oxidative phosphorylation) were determined using a Seahorse XF cell mito stress test kit and a Seahorse Xfe96 analyzer (Agilent Technologies, Santa Clara, California) under basal condition or in response to 1.0 μM oligomycin (an inhibitor of ATP synthase), 1.5 μM carbonyl cyanide-p-trifluoromethoxyphenylhydrazone (FCCP, a mitochondrial uncoupler), 0.5 μM rotenone (an inhibitor of electron transport at complex I) and antimycin A (an inhibitor of electron transport at cytochrome c reductase). PBMCs include monocytes and lymphocytes including T cells, B cells and natural killer cells.

HEK293 cells = assay: NADH/NAD+ ratio in H2O2-exposed HEK293 cells (NAD/NADH-Glo); format: cell-based; details: NRH at 100 and 1000 μM, NR at all tested concentrations (0.01-1000 μM)
Protocol: HEK293 cells were trypsinized and plated at a density of 60,000 cells per well. The cells were then treated with H2O2 (600 μM prepared with Dulbecco's Modified Eagle Medium [DMEM]) for 30 min. The media was then replaced with serum media (DMEM supplemented with 10% fetal bovine serum [FBS]) containing NRH or NR, and were incubated at 37° C. under 6% CO2 for 30 min or 6 hr. The cells were incubated with the following concentrations of NRH or NR: 0.01, 0.1, 1.0, 10, 100 and 1000 μM. NAD^+ and NADH levels at 30 min and 6 hr were estimated using the NAD/NADH-Glo Promega Bioluminescent assay. The results were expressed as fold change relative to the values obtained with untreated cells.

RBC hemoglobin = assay: H2O2-induced oxidative changes of RBC hemoglobin in vitro (spectral scans); format: cell-based, human
Protocol: A 4 M stock solution of sodium azide was prepared. One mL of the 4 M stock azide solution was diluted with 9 mL of phosphate-buffered saline (PBS, pH 7.4) to obtain a 0.4 M stock solution, which was further diluted with PBS to obtain a 0.01 M working solution of sodium azide. Eight mL of whole blood was collected in buffered acid citrate dextrose tubes from a healthy human donor. PBS was added to 500 μL of whole blood. The samples were centrifuged, and then the supernatant from each tube was discarded to obtain a red blood cell (RBC) pellet. Ten μL of 0.01 M sodium azide working solution was added to 20 μL of RBC suspension. Twenty μL of hydrogen peroxide (H2O2) diluted in PBS was added to the RBC suspension to obtain final concentrations of H2O2 ranging from 0.01 mM to 100 mM. The samples were incubated at 37° C. for 1.5 hr. 950 μL of de-ionized water was added to the samples, which were then incubated for 10 min to lyse the RBCs and obtain hemoglobin upon centrifugation at 1,500 g. Spectral scans of the lysed samples between 200 nm and 1100 nm were obtained in 2 nm increments, using a Systronics® dual-beam UV-spectrophotometer and de-ionized water as a blank. Samples incubated with PBS at 37° C. for 1-1.5 hr were used as controls to establish the oxidative effects of H2O2 on RBC hemoglobin. Absorbance at 576 nm is a measure of hemoglobin concentration in a sample, and oxidation of hemoglobin to methemoglobin results in a drop in absorbance at 576 nm and an increase in absorbance at 630 nm. Fantao et al., Anal. Biochem., 521:11-19, (2017). Stock solutions of NRH (29.6 mM) and NR (18.3 mM) were prepared in 0.9% normal saline. Appropriate quantities of the stock NRH or NR solution and PBS were added to 500 μL of whole blood to obtain final concentrations of NRH or NR ranging from 1 μM to 1000 μM. The whole blood samples with NRH or NR were mixed gently and incubated at 37° C. for 1-1.5 hr. The samples were centrifuged, and then the supernatant was discarded to obtain an RBC pellet for each sample.

red blood cells (RBCs) = assay: H2O2-induced hemolysis in vitro; format: cell-based; details: 2000, 200 and 20 μM, pre-incubation 1 hr at 37° C., then H2O2 4 hr
Protocol: Individual test compounds were dissolved in 0.9% normal saline to prepare 0.3 M stock solutions. A 0.3 M stock solution was added to a 20% suspension of washed red blood cells (RBCs) in saline to obtain final concentrations of 2000 μM, 200 μM and 20 μM of the compound. The RBC suspensions were incubated with the test compound at 37° C. for 1 hr prior to testing. A 2.5% H2O2 solution was prepared fresh by dilution with normal saline and chilled at 2-8° C. before use. Each RBC suspension containing the test compound was split into tubes A and B. 250 μL of the chilled H2O2 solution was added to 250 μL of RBC suspension in each tube while maintaining the tubes in an ice bath. The tubes were incubated at 37° C. for 4 hr, and then 4.5 mL of saline or de-ionized water was added to tube A or tube B, respectively. After the tubes were incubated for 10 min, the mixture in the tubes was centrifuged at 1800 g, and then absorbance was measured in the supernatant at 540 nm. The percentage of hemolysis was calculated as: […]

CD8^+ T cells [3] = assay: Mitochondrial membrane depolarization (JC-1, flow cytometry) in CD8+ T cells; format: cell-based, human; details: 250 μM, 24 hr, unstimulated or stimulated with anti-CD3 and anti-CD28 antibodies
Protocol: (§1) PBMCs (10^6 cells per test group) obtained from healthy human adult donors were unstimulated or stimulated with anti-CD3 and anti-CD28 antibodies to induce T-cell activation, in the absence or presence of 250 μM of NRH or NRH-triacetate (NRHTA). Measurements were made at 5, 15 and 24 hr after treatment.
(§2) After the indicated time of incubation, the PBMCs were stained with anti-CD3, anti-CD4 and anti-CD8 antibodies (Biolegend), JC-1 (1 μM, Thermo Fisher) and annexin V (Thermo Fisher) prior to analysis by flow cytometry. Annexin V binds to cell-surface phosphatidylserine, which is a marker for different forms of cell death including apoptosis and necrosis. The stained cells were re-suspended in phosphate-buffered saline (PBS) and acquired in a Cytek Aurora flow cytometer using a FlowJo software (v10) for analysis. About 200,000-300,000 cells were acquired in the flow cytometer for analysis. Standard procedures for spectral compensation were performed to obtain cell populations. Lymphocytes identified by forward and side scatter were gated to obtain CD3^+/CD4^+ and CD3^+/CD8^+ T-cell populations. Those T-cell populations were gated to identify the red and green signals for JC-1 aggregate and monomer, respectively, and annexin V. The percentage of cells staining green by JC-1 monomer was used to determine the percentage of cells with depolarized mitochondria. […]

CD4^+ T cells [4] = assay: Cell death including apoptosis (annexin V, flow cytometry) of CD4+ T cells with depolarized mitochondria; format: cell-based, human; details: 250 μM, 24 hr, unstimulated or stimulated with anti-CD3 and anti-CD28 antibodies
Protocol: as §1, §2

CD4^+ T cells [5] = assay: Mitochondrial membrane depolarization (JC-1, flow cytometry) in CD4+ T cells; format: cell-based, human; details: 250 μM, 24 hr, unstimulated or stimulated with anti-CD3 and anti-CD28 antibodies
Protocol: as §1, §2

CD4^+ T cells [6] = assay: Ex vivo polyclonal immune activation model: cytokine production in CD4+ T cells; format: cell-based, human; details: stimulated with anti-CD3 and anti-CD28 antibodies; data not shown
Protocol: (§3) Heparinized venous blood was collected from healthy human adult donors. Peripheral blood mononuclear cells (PBMCs) were isolated by Ficoll-Hypaque density-gradient centrifugation. PBMCs (1.0×10^6) were seeded in round-bottom, 96-well plates in 200 μL of medium, unstimulated or stimulated with an anti-CD3 antibody ([…], clone-HIT3a, Biolegend) plus an anti-CD28 antibody (1 μg/mL, clone-CD28.2, Biolegend) to induce T-cell activation, and incubated in cell-culture medium. The PBMCs were unstimulated or stimulated with anti-CD3 and anti-CD28 antibodies to induce T-cell activation, in the absence or presence of 250 μM NRH. After 18 hours of incubation, lymphocytes were analyzed for intracellular levels of IFN-γ, TNF-α and IL-2 by flow cytometry. Intracellular cytokine production was stopped by treating the cells with Golgi stop after 1 hr of treatment.

CD8^+ T cells [7] = assay: Ex vivo polyclonal immune activation model: intracellular cytokine production in CD8+ T cells (flow cytometry); format: cell-based, human; details: stimulated with anti-CD3 and anti-CD28 antibodies; data not shown
Protocol: as §3

CD8^+ T cells [8] = assay: Cell death including apoptosis (annexin V, flow cytometry) of CD8+ T cells with depolarized mitochondria; format: cell-based, human; details: 250 μM, 24 hr, unstimulated or stimulated with anti-CD3 and anti-CD28 antibodies
Protocol: as §1, §2

| compound remaining intact in human serum within 5 min ([1]; within 5 min of addition, absorbance at 265 nm) | Compound | extracellular acidification rate (ECAR, a measure of glycolysis) in activated PBMCs [2] | NADH/NAD+ ratio in HEK293 cells exposed to H2O2 (HEK293 cells; 30 min of incubation) | NADH/NAD+ ratio in HEK293 cells exposed to H2O2 (HEK293 cells; 6 hr of incubation) | A576/A630 ratio (a measure of the hemoglobin/methemoglobin ratio) (RBC hemoglobin; RBCs exposed to 1 mM H2O2, 1 μM or 100 μM NRH, NR data not shown) | protection of hemoglobin from 1 mM H2O2-induced oxidative changes (amplitude of absorbance peaks at 576, 540, 434, 348 and 270 nm) (RBC hemoglobin; pre-incubation of RBCs with 1, 10 and 100 µM) | H2O2-induced hemolysis (red blood cells (RBCs)) | compound remaining intact in human serum after 6 hr ([1]; 6 hr) | compound remaining intact in human serum after 24 hr ([1]; 24 hr) | stability in human serum compared with NR ([1]; up to 24 hr, p<0.05) | mitochondrial membrane depolarization in CD8+ T cells (CD8^+ T cells [3]) | cell death including apoptosis of CD4+ T cells with depolarized mitochondria (CD4^+ T cells [4]) | mitochondrial membrane depolarization in CD4+ T cells (CD4^+ T cells [5]) | production of pro-inflammatory cytokines (e.g., TNF-α, IL-2, IFN-γ) by CD4+ T cells (CD4^+ T cells [6]) | production of pro-inflammatory cytokines (e.g., TNF-α, IL-2, IFN-γ) by CD8+ T cells (CD8^+ T cells [7]) | cell death including apoptosis of CD8+ T cells with depolarized mitochondria (CD8^+ T cells [8]) |
| --- | --- | --- | --- | --- | --- | --- | --- | --- | --- | --- | --- | --- | --- | --- | --- | --- |
| most of NR did not remain intact | NC(=O)c1ccc[n+]([C@@H]2O[C@H](CO)[C@@H](O)[C@H]2O)c1 [NR, nicotinamide riboside, reference compound] | Unlike NR (data not shown), NRH reduced glycolysis | did not significantly affect | did not significantly affect | did not significantly affect | not with NR (MP02), protected hemoglobin | neither NR (MP-02) nor NR-triacetate (MP-39) at any concentration tested, reduced H2O2-induced hemolysis | – | – | – | – | – | – | – | – | – |
| – | CC(=O)OC[C@H]1O[C@@H]([n+]2cccc(C(N)=O)c2)[C@H](OC(C)=O)[C@@H]1OC(C)=O.O=S(=O)([O-])C(F)(F)F [NR-triacetate, 3-Carboxamide-N-(2,3,5-tri-O-acetyl-β-D-ribofuranosyl)pyridinium Triflate, reference compound] | – | – | – | – | – | neither NR (MP-02) nor NR-triacetate (MP-39) at any concentration tested, reduced H2O2-induced hemolysis | – | – | – | – | – | – | – | – | – |
| – | CC(=O)OC[C@H]1O[C@@H](N2C=CCC(C(N)=O)=C2)[C@H](OC(C)=O)[C@@H]1OC(C)=O [NRH-triacetate, N-(2,3,5-tri-O-acetyl-β-D-ribofuranosyl)dihydronicotinamide] | – | – | – | – | – | reduced H2O2-induced hemolysis | Most of both NRH and NRH-triacetate remained intact | about 50% | much more stable | significantly induced | reduced cell death | significantly induced | reduced production of pro-inflammatory cytokines | reduced production of pro-inflammatory cytokines | reduced cell death |
